Test results taken from patent US20050112573A1, “Method of detecting toxic substance” (priority 2001, published 2005).

Test system: yeast genes (level of expressed mRNA)
Experiment: DNA chip analysis of expressed mRNA of yeast genes after 2 h culture with a toxic chemical substance
Format: cell-based, Saccharomyces cerevisiae S288C
How it was run: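 S. cerevisiae S288C in YPD at 25 °C was exposed at log phase for 2 h to a growth-inhibiting, non-lethal concentration of the chemical. Poly(A) mRNA was reverse-transcribed with Cy3- or Cy5-dUTP and hybridized to a whole-genome yeast DNA chip (65 °C, >12 h). Values are fluorescence ratios versus untreated cells.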

sodium dodecylbenzosulfonate [(17)]
level of expressed mRNA in the presence of chemical substance/in its absence (gene YGL104C): 1.3 | level of expressed mRNA in the presence of chemical substance/in its absence (gene YGL126W): 0.9 | level of expressed mRNA in the presence of chemical substance/in its absence (gene YGL134W): 0.9 | level of expressed mRNA in the presence of chemical substance/in its absence (gene YGL154C): 1.0 | The level of expressed mRNA in the presence of chemical substance/absence: YGL183C (gene YGL183C): 1.4 | level of expressed mRNA in the presence of chemical substance/in its absence (gene YGL209W): 1.1 | The level of expressed mRNA in the presence of chemical substance/absence: YGL223C (gene YGL223C): 0.8 | level of expressed mRNA in the presence of chemical substance/in its absence (gene YGL253W): 0.7 | The level of expressed mRNA in the presence of chemical substance/absence: YGR038W (gene YGR038W): 1.1 | level of expressed mRNA in the presence of chemical substance/in its absence (gene YGR060W): 1.3 | The level of expressed mRNA in the presence of chemical substance/absence: YGR139W (gene YGR139W): 1.0 | The level of expressed mRNA in the presence of chemical substance/absence: YGR156W (gene YGR156W): 0.8 | The level of expressed mRNA in the presence of chemical substance/absence: YGR198W (gene YGR198W): 1.1 | The level of expressed mRNA in the presence of chemical substance/absence: YGR210C (gene YGR210C): 1.1 | The level of expressed mRNA in the presence of chemical substance/absence: YGR211W (gene YGR211W): 0.5 | The level of expressed mRNA in the presence of chemical substance/absence: YGR237C (gene YGR237C): 0.9 | The level of expressed mRNA in the presence of chemical substance/absence: YGR243W (gene YGR243W): 2.1 | The level of expressed mRNA in the presence of chemical substance/absence: YGR250C (gene YGR250C): 1.3 | The level of expressed mRNA in the presence of chemical substance/absence: YGR266W (gene YGR266W): 0.7 | The level of expressed mRNA in the presence of chemical substance/absence: YGR277C (gene YGR277C): 1.3 | level of expressed mRNA in the presence of chemical substance/in its absence (gene YGR282C): 1.1 | The level of expressed mRNA in the presence of chemical substance/absence: YGR293C (gene YGR293C): 0.8 | The level of expressed mRNA in the presence of chemical substance/absence: YHL006C (gene YHL006C): 1.1 | The level of expressed mRNA in the presence of chemical substance/absence: YHL021C (gene YHL021C): 1.3 | The level of expressed mRNA in the presence of chemical substance/absence: YHL037C (gene YHL037C): 0.9 | level of expressed mRNA in the presence of chemical substance/in its absence (gene YHR037W): 1.0 | The level of expressed mRNA in the presence of chemical substance/absence: YHR083W (gene YHR083W): 0.8 | level of expressed mRNA in the presence of chemical substance/in its absence (gene YHR092C): 0.9 | The level of expressed mRNA in the presence of chemical substance/absence: YHR095W (gene YHR095W): 0.8 | The level of expressed mRNA in the presence of chemical substance/absence: YHR105W (gene YHR105W): 1.0 | The level of expressed mRNA in the presence of chemical substance/absence: YHR134W (gene YHR134W): 1.3 | level of expressed mRNA in the presence of chemical substance/in its absence (gene YHR137W): 0.8 | The level of expressed mRNA in the presence of chemical substance/absence: YHR180W (gene YHR180W): 0.8 | The level of expressed mRNA in the presence of chemical substance/absence: YHR181W (gene YHR181W): 0.9 | level of expressed mRNA in the presence of chemical substance/in its absence (gene YHR190W): 1.3 | level of expressed mRNA in the presence of chemical substance/in its absence (gene YIL033C): 1.0 | The level of expressed mRNA in the presence of chemical substance/absence: YIL108W (gene YIL108W): 1.2 | The level of expressed mRNA in the presence of chemical substance/absence: YIL127C (gene YIL127C): 0.7 | level of expressed mRNA in the presence of chemical substance/in its absence (gene YIL154C): 1.2 | The level of expressed mRNA in the presence of chemical substance/absence: YIL165C (gene YIL165C): 1.4 | level of expressed mRNA in the presence of chemical substance/in its absence (gene YIL167W): 0.7 | level of expressed mRNA in the presence of chemical substance/in its absence (gene YIR035C): 1.1 | The level of expressed mRNA in the presence of chemical substance/absence: YJL017W (gene YJL017W): 1.0 | The level of expressed mRNA in the presence of chemical substance/absence: YJL032W (gene YJL032W): 1.1 | The level of expressed mRNA in the presence of chemical substance/absence: YJL037W (gene YJL037W): 1.3 | The level of expressed mRNA in the presence of chemical substance/absence: YJL049W (gene YJL049W): 0.9 | level of expressed mRNA in the presence of chemical substance/in its absence (gene YJL088W): 1.4 | The level of expressed mRNA in the presence of chemical substance/absence: YJL097W (gene YJL097W): 1.2 | level of expressed mRNA in the presence of chemical substance/in its absence (gene YJL132W): 1.3 | level of expressed mRNA in the presence of chemical substance/in its absence (gene YJL196C): 0.9 | The level of expressed mRNA in the presence of chemical substance/absence: YJR030C (gene YJR030C): 0.7 | The level of expressed mRNA in the presence of chemical substance/absence: YJR044C (gene YJR044C): 1.8 | level of expressed mRNA in the presence of chemical substance/in its absence (gene YJR142W): 1.2 | level of expressed mRNA in the presence of chemical substance/in its absence (gene YJR148W): 1.3 | level of expressed mRNA in the presence of chemical substance/in its absence (gene YJR159W): 1.7 | The level of expressed mRNA in the presence of chemical substance/absence: YKL051W (gene YKL051W): 1.5 | The level of expressed mRNA in the presence of chemical substance/absence: YKL059C (gene YKL059C): 1.1 | level of expressed mRNA in the presence of chemical substance/in its absence (gene YKL067W): 1.4 | The level of expressed mRNA in the presence of chemical substance/absence: YKL090W (gene YKL090W): 0.7 | The level of expressed mRNA in the presence of chemical substance/absence: YKL094W (gene YKL094W): 1.2 | The level of expressed mRNA in the presence of chemical substance/absence: YKL097C (gene YKL097C): 1.1 | The level of expressed mRNA in the presence of chemical substance/absence: YKL100C (gene YKL100C): 0.7 | level of expressed mRNA in the presence of chemical substance/in its absence (gene YKR039W): 0.9 | The level of expressed mRNA in the presence of chemical substance/absence: YKR040C (gene YKR040C): 0.7 | The level of expressed mRNA in the presence of chemical substance/absence: YLR097C (gene YLR097C): 1.1 | level of expressed mRNA in the presence of chemical substance/in its absence (gene YLR142W): 1.9 | level of expressed mRNA in the presence of chemical substance/in its absence (gene YLR180W): 0.8 | The level of expressed mRNA in the presence of chemical substance/absence: YLR226W (gene YLR226W): 1.1 | level of expressed mRNA in the presence of chemical substance/in its absence (gene YLR273C): 1.0 | level of expressed mRNA in the presence of chemical substance/in its absence (gene YLR300W): 0.7 | level of expressed mRNA in the presence of chemical substance/in its absence (gene YLR307W): 1.1 | The level of expressed mRNA in the presence of chemical substance/absence: YLR338W (gene YLR338W): 0.8 | The level of expressed mRNA in the presence of chemical substance/absence: YLR339C (gene YLR339C): 0.7 | The level of expressed mRNA in the presence of chemical substance/absence: YLR392C (gene YLR392C): 0.8 | The level of expressed mRNA in the presence of chemical substance/absence: YLR415C (gene YLR415C): 0.8 | The level of expressed mRNA in the presence of chemical substance/absence: YLR427W (gene YLR427W): 1.0 | The level of expressed mRNA in the presence of chemical substance/absence: YML013W (gene YML013W): 1.1 | The level of expressed mRNA in the presence of chemical substance/absence: YML029W (gene YML029W): 1.2 | The level of expressed mRNA in the presence of chemical substance/absence: YML041C (gene YML041C): 1.3 | The level of expressed mRNA in the presence of chemical substance/absence: YML079W (gene YML079W): 1.4 | level of expressed mRNA in the presence of chemical substance/in its absence (gene YML110C): 1.1 | The level of expressed mRNA in the presence of chemical substance/absence: YML118W (gene YML118W): 1.5 | The level of expressed mRNA in the presence of chemical substance/absence: YMR068W (gene YMR068W): 1.3 | The level of expressed mRNA in the presence of chemical substance/absence: YMR071C (gene YMR071C): 1.2 | level of expressed mRNA in the presence of chemical substance/in its absence (gene YMR105C): 1.6 | The level of expressed mRNA in the presence of chemical substance/absence: YMR114C (gene YMR114C): 1.0 | The level of expressed mRNA in the presence of chemical substance/absence: YMR115W (gene YMR115W): 1.0 | The level of expressed mRNA in the presence of chemical substance/absence: YMR160W (gene YMR160W): 0.9 | level of expressed mRNA in the presence of chemical substance/in its absence (gene YMR189W): 1.0 | The level of expressed mRNA in the presence of chemical substance/absence: YMR258C (gene YMR258C): 1.1 | level of expressed mRNA in the presence of chemical substance/in its absence (gene YMR271C): 1.3 | level of expressed mRNA in the presence of chemical substance/in its absence (gene YMR272C): 1.3 | level of expressed mRNA in the presence of chemical substance/in its absence (gene YMR296C): 0.8 | level of expressed mRNA in the presence of chemical substance/in its absence (gene YNL012W): 1.3 | The level of expressed mRNA in the presence of chemical substance/absence: YNL026W (gene YNL026W): 1.0
